Experiments:
[1] = biological target: Dihydroorotate dehydrogenase (quinone), mitochondrial (Homo sapiens, UniProt Q02127); test: Inhibition of human dihydroorotate dehydrogenase
[2] = biological target: Dihydroorotate dehydrogenase (quinone), mitochondrial (Rattus norvegicus, UniProt Q63707); test: Inhibition of rat dihydroorotate dehydrogenase
[3] = Half life in human plasma; format: ADME, organism-based
PBMC = test: Antiproliferative activity against PHA-stimulated human PBMC assessed as inhibition of […] after 72 hrs by BrdU-ELISA assay; format: functional, cell-based
[4] = Metabolic stability in human microsomes assessed as compound degradation at 5 uM after 30 mins; format: ADME, Microsome; details: read-out: Drug metabolism
Rattus norvegicus [5] = test: Antiinflammatory activity in rat Freund's adjuvant induced-arthritis model assessed as inhibition of paw edema at 10 mg/kg qd administered 10 days post challenge for 10 consecutive days; format: functional; details: 240 h
[6] = Half life in rat at 1 mg/kg, iv; format: ADME, organism-based; set-up: dose 1 mg/kg, route intravenous; details: in vivo
[7] = Metabolic stability in rat microsomes assessed as compound degradation at 5 uM after 30 mins; format: ADME, Microsome; details: read-out: Drug metabolism
Rattus norvegicus [8] = test: Antiinflammatory activity in rat Freund's adjuvant induced-arthritis model assessed as inhibition of paw edema administered 10 days post challenge once daily for 10 days; format: functional; details: 240 h

Chain of Dihydroorotate dehydrogenase (quinone), mitochondrial (Homo sapiens, UniProt Q02127) (Q02127 whole entry): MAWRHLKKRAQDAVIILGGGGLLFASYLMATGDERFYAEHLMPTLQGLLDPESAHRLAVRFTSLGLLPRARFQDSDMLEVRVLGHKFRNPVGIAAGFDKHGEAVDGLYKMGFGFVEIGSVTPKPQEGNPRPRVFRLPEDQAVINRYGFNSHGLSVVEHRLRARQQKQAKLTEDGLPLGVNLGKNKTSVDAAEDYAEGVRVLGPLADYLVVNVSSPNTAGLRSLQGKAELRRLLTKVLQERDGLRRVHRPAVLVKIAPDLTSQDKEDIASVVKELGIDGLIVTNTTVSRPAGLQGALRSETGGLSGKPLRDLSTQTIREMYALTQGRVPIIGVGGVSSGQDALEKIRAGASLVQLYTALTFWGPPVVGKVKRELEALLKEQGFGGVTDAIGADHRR
Chain of Dihydroorotate dehydrogenase (quinone), mitochondrial (Rattus norvegicus, UniProt Q63707) (Q63707 whole entry): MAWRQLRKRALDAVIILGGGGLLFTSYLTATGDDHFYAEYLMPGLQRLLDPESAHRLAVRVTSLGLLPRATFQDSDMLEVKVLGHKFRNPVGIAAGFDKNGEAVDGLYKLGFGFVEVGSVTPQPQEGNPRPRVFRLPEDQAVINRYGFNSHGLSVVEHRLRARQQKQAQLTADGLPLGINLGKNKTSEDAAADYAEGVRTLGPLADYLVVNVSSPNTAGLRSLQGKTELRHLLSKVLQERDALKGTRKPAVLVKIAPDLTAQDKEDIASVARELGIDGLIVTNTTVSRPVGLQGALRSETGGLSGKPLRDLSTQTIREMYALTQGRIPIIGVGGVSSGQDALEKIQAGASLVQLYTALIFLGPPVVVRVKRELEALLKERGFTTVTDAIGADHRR

Compound	IC50 [1] [µM]	IC50 (PBMC) [µM]	other results
CC/C(O)=C(\C#N)C(=O)Nc1ccc(-c2ccccc2)c(C(=O)OC)c1	0.073	–	–
CC/C(O)=C(\C#N)C(=O)Nc1ccc(-c2ccc(F)cc2)c(C(=O)OC)c1	0.11	2	IC50 [2]: 0.35 µM; half-life [3]: 336 h; metabolised at 0.5 h, 5 µM [4]: 17%; inhibition in vivo at 10 mg/kg (Rattus norvegicus [5]): 49%; half-life [6]: 0.9 h; metabolised at 0.5 h, 5 µM [7]: 19%
C/C(O)=C(\C#N)C(=O)Nc1ccc(C(F)(F)F)cc1 [TERIFLUNOMIDE]	–	46	metabolised at 0.5 h, 5 µM [4]: 3%; ED50 (Rattus norvegicus [8]): 2.88 mg/kg; half-life [6]: 14.1 h; metabolised at 0.5 h, 5 µM [7]: 0%
CC/C(O)=C(\C#N)C(=O)Nc1ccc(-c2ccc(F)cc2OC)c(C(=O)OC)c1	0.066	–	–
CC/C(O)=C(\C#N)C(=O)Nc1ccc(-c2ccc(F)c(F)c2)c(C(=O)OC)c1	0.097	–	–
CC/C(O)=C(\C#N)C(=O)Nc1ccc(-c2ccccc2Cl)c(C(=O)OC)c1	0.052	–	–
CC/C(O)=C(\C#N)C(=O)Nc1ccc(-c2ccc3c(c2)OCO3)c(C(=O)OC)c1	0.076	18.5	–
CC/C(O)=C(\C#N)C(=O)Nc1ccc(-c2cccc(F)c2)c(C(=O)OC)c1	0.198	–	–
CC/C(O)=C(\C#N)C(=O)Nc1ccc(OS(=O)(=O)C(F)(F)F)cc1	0.15	–	half-life [6]: 8 h
CCOc1cccc(-c2ccc(NC(=O)/C(C#N)=C(\O)CC)cc2C(=O)OC)c1	0.059	–	–
CC/C(O)=C(\C#N)C(=O)Nc1ccc(-c2ccc(F)cc2C)c(C(=O)OC)c1	0.049	–	–
CC/C(O)=C(\C#N)C(=O)Nc1ccc(-c2ccc3c(c2)OCCO3)c(C(=O)OC)c1	0.066	–	–
CC/C(O)=C(\C#N)C(=O)Nc1ccc(-c2cc(F)c(F)c(F)c2)c(C(=O)OC)c1	0.137	19	–
CC/C(O)=C(\C#N)C(=O)Nc1ccc(OS(=O)(=O)C(F)(F)F)c(C(=O)OC)c1	0.093	–	half-life [6]: 2 h
CC/C(O)=C(\C#N)C(=O)Nc1ccc(-c2ccc(F)nc2)c(C(=O)OC)c1	0.15	–	–

More lines, in order of falling IC50 [1], values ahead:

IC50 [1] [µM]	Compound	IC50 (PBMC) [µM]	other results
0.045	CC/C(O)=C(\C#N)C(=O)Nc1ccc(-c2ccc(Cl)cc2)c(C(=O)OC)c1	13	–
0.04	CC/C(O)=C(\C#N)C(=O)Nc1ccc(-c2cccnc2)c(C(=O)OC)c1	–	–
0.034	CC/C(O)=C(\C#N)C(=O)Nc1ccc(-c2cccc(OC(F)F)c2)c(C(=O)OC)c1	–	–
0.031	CC/C(O)=C(\C#N)C(=O)Nc1ccc(-c2ccc(F)cc2F)c(C(=O)OC)c1	6	–
0.031	CC/C(O)=C(\C#N)C(=O)Nc1ccc(-c2cccc(Cl)c2)c(C(=O)OC)c1	34	–
0.031	CC/C(O)=C(\C#N)C(=O)Nc1ccc(-c2cccc(OC3CCC3)c2)c(C(=O)OC)c1	–	–
0.027	CC/C(O)=C(\C#N)C(=O)Nc1ccc(-c2cccc(OC(F)(F)F)c2)c(C(=O)OC)c1	37	–
0.026	CC/C(O)=C(\C#N)C(=O)Nc1ccc(-c2cccc(OC)c2)c(C(=O)OC)c1	–	–
